≈ marks a conversion by molar mass, not a printed value. Positions of bridges follow the written chain, without caps; N, C: chain ends. Non-standard residues stand in square brackets, D forms with d. Residues, ends and D or L forms follow the SMILES beside them. S5 = C=CCCC[C@](C)(N)C(=O)O; Dap = NC[C@H](N)C(=O)O
What was measured:
K. pneumoniae = type: cell-based, Klebsiella pneumoniae
Experimental: (§1) Antimicrobial Activity Assay: The following microbroth dilution protocol was adapted from CLSI to determine the minimum inhibitory concentration (MIC) of StAMPs. Briefly, Mueller-Hinton broth (MHB) or cation-adjusted Mueller-Hinton broth (MHB II) was prepared and autoclaved. Then, a colony of bacterial cells was picked and grown overnight in broth at 37° C. and then diluted and allowed to grow again for 3-4 hours. Serial dilutions of peptide stocks in water (10 μl) were prepared using clear round-bottom polypropylene 96-well plates. Then 90 μl of bacteria in broth was added to give a final inoculum of 5×10^5 CFU/ml. The plates were then covered with porous tape to reduce evaporation and incubated for 20-24 hours at 37° C. The MIC was the minimum peptide concentration at which no visible bacterial growth was observed.
(§2) Renal toxicity was measured after 90 minutes of incubation, while liver toxicity was measured after 48 hours of incubation with StAMPs. N/A=not tested. The following apply to all peptides (i.e., StAMPs) listed in Tables A-C: Crosslinks (X^1—X^2 and X^3—X^4): (alk); N-terminus: —NH2; C-terminus: amidated with —NH2; counterion: Cl^−. The following apply to all peptides (i.e., StAMPs) listed in Table D: Crosslinks (X^1—X^2 and X^3—X^4): (alk); N-terminus: —NH2; C-terminus: as shown in table; counterion: Cl^−.

P. aeruginosa = type: cell-based, Pseudomonas aeruginosa
Experimental: as §1, §2
StAMP Micelle Formulation: DSPE-MPEG(2000) was suspended in buffered saline at 50-100 mg/mL overnight. StAMP stock solutions at 5-20 mg/mL in buffered saline were prepared and equal volumes of micelle and StAMP stock solution were mixed at the desired StAMP:Lipid ratio. Suspensions were allowed to sit for 5-10 minutes at room temperature before being used in in vitro and in vivo assays. […]

S. aureus = type: cell-based, Staphylococcus aureus
Experimental: as §1, §2

E. coli = type: cell-based, Escherichia coli
Experimental: as §1, §2

in vitro = type: cell-based; settings: human, Inhibitory Concentration at 50% Cytotoxicity (IC50) Human Liver Cells (HepG2)
Experimental: Cell culture: RPTEC were maintained in MEM media supplemented with growth factors. HEPG2 cell line was maintained in Eagle's Minimum Essential Medium (EMEM) supplemented with fetal bovine serum to a final concentration of 10%.
48 hours cytotoxicity assay: Cells were plated in a 96-well format, and after 4 hour incubation to allow attachment, serial dilutions of StAMPs from a 5 mg/mL water stock, or vehicle, were then added to the cells in a final volume of 100 μl. After incubating at 37° C. for 48 hours, 100 μl of CellTiter-Glo® reagent was added to the cells, and the plates were incubated 10 minutes at room temperature. Luminescence was then measured on a microplate reader.
as §2

A. baumannii = type: cell-based, Acinetobacter baumannii
Experimental: as §1, §2

SMILES	Minimum Inhibitory Concentration (MIC) K. pneumoniae (K. pneumoniae)	Minimum Inhibitory Concentration (MIC) P. aeruginosa (P. aeruginosa)	Minimum Inhibitory Concentration (MIC) S. aureus (S. aureus)	Minimum Inhibitory Concentration (MIC) E. coli (E. coli)	Minimum Inhibitory Concentration (MIC) A. baumannii (A. baumannii)	IC50 at 48 hours (in vitro)
CC(C)[C@@H]1NC(=O)[C@@](C)(NC(=O)[C@H](C)NC(=O)[C@H](CCCCN)NC(=O)[C@H](CO)NC(=O)[C@H](Cc2ccccc2)NC(=O)[C@H](CCCCN)NC(=O)[C@H](CCCCN)NC(=O)[C@H](CCCCN)NC(=O)[C@H](CCCCN)NC(=O)[C@H](CN)NC(=O)[C@]2(C)CCCC=CCCC[C@](C)(NC(=O)CN)C(=O)NCC(=O)N[C@@H](CCCCN)C(=O)N[C@@H](Cc3ccccc3)C(=O)N2)CCCC=CCCC[C@@](C)(C(=O)N[C@@H](C)C(=O)N[C@@H](CCCCN)C(=O)N[C@@H](CCCCN)C(N)=O)NC(=O)[C@H](CCC(=O)O)NC(=O)CNC1=O [compound 86] (H-G[S5]GKF[S5][Dap]KKKKFSKA[S5]VGE[S5]AKK-NH2; staple 2-6, 16-20)	32 µg/mL	1 µg/mL	64 µg/mL	2 µg/mL	1 µg/mL	> 200 µg/mL
CC(C)[C@@H]1NC(=O)[C@@](C)(NC(=O)[C@H](C)NC(=O)[C@H](CCCCN)NC(=O)CNC(=O)[C@H](Cc2ccccc2)NC(=O)[C@H](CCCCN)NC(=O)[C@H](CCCCN)NC(=O)[C@H](CN)NC(=O)[C@H](CCCCN)NC(=O)[C@H](CN)NC(=O)[C@]2(C)CCCC=CCCC[C@](C)(NC(=O)CN)C(=O)NCC(=O)N[C@@H](CCCCN)C(=O)N[C@@H](Cc3ccccc3)C(=O)N2)CCCC=CCCC[C@@](C)(C(=O)N[C@@H](C)C(=O)N[C@@H](CCCCN)C(=O)N[C@@H](CCCCN)C(=O)NCC(=O)NCC(=O)N[C@@H](CCC(=O)O)C(N)=O)NC(=O)[C@H](CCC(=O)O)NC(=O)CNC1=O [compound 83] (H-G[S5]GKF[S5][Dap]K[Dap]KKFGKA[S5]VGE[S5]AKKGGE-NH2; staple 2-6, 16-20)	>64 µg/mL	32 µg/mL	>64 µg/mL	64 µg/mL	64 µg/mL	> 200 µg/mL
CC(C)[C@@H]1NC(=O)[C@@](C)(NC(=O)[C@H](C)NC(=O)[C@H](CCCCN)NC(=O)CNC(=O)[C@H](Cc2ccccc2)NC(=O)[C@H](CCCCN)NC(=O)[C@H](CCCCN)NC(=O)[C@H](CCCCN)NC(=O)[C@H](CCCCN)NC(=O)[C@H](CN)NC(=O)[C@]2(C)CCCC=CCCC[C@](C)(NC(=O)CN)C(=O)NCC(=O)N[C@@H](CCCCN)C(=O)N[C@@H](Cc3ccccc3)C(=O)N2)CCCC=CCCC[C@@](C)(C(=O)N[C@@H](C)C(=O)N[C@@H](CCCCN)C(=O)N[C@@H](CCCCN)C(N)=O)NC(=O)[C@H](CCC(=O)O)NC(=O)[C@H](CO)NC1=O [compound 88] (H-G[S5]GKF[S5][Dap]KKKKFGKA[S5]VSE[S5]AKK-NH2; staple 2-6, 16-20)	32 µg/mL	1 µg/mL	>64 µg/mL	1 µg/mL	1 µg/mL	168 µg/mL (≈ 65.8 µM)
CC(C)[C@@H]1NC(=O)[C@@](C)(NC(=O)[C@H](C)NC(=O)[C@H](CCCCN)NC(=O)CNC(=O)[C@H](Cc2ccccc2)NC(=O)[C@H](CCCCN)NC(=O)[C@H](CCCCN)NC(=O)[C@H](CCCCN)NC(=O)[C@H](CCCCN)NC(=O)[C@H](CCN)NC(=O)[C@]2(C)CCCC=CCCC[C@](C)(NC(=O)CN)C(=O)NCC(=O)N[C@@H](CCCCN)C(=O)N[C@@H](Cc3ccccc3)C(=O)N2)CCCC=CCCC[C@@](C)(C(=O)N[C@@H](C)C(=O)N[C@@H](CCCCN)C(=O)N[C@@H](CCCCN)C(N)=O)NC(=O)[C@H](CCC(=O)O)NC(=O)CNC1=O (single isomer, unassigned) [compound 41]	4 µg/mL	4 µg/mL	>64 µg/mL	2 µg/mL	2 µg/mL	115 µg/mL (≈ 45.3 µM)
CC(C)[C@@H]1NC(=O)[C@@](C)(NC(=O)[C@H](CO)NC(=O)[C@H](CCCCN)NC(=O)CNC(=O)[C@H](Cc2ccccc2)NC(=O)[C@H](CCCCN)NC(=O)[C@H](CCCCN)NC(=O)[C@H](CCCCN)NC(=O)[C@H](CCCCN)NC(=O)[C@H](CCCCN)NC(=O)[C@]2(C)CCCC=CCCC[C@](C)(NC(=O)CN)C(=O)NCC(=O)N[C@@H](CCCCN)C(=O)N[C@@H](Cc3ccccc3)C(=O)N2)CCCC=CCCC[C@@](C)(C(=O)N[C@@H](C)C(=O)N[C@@H](CCCCN)C(=O)N[C@@H](CCCCN)C(=O)NCC(=O)NCC(=O)N[C@@H](CCC(=O)O)C(N)=O)NC(=O)[C@H](CCC(=O)O)NC(=O)CNC1=O [compound 92] (H-G[S5]GKF[S5]KKKKKFGKS[S5]VGE[S5]AKKGGE-NH2; staple 2-6, 16-20)	>64 µg/mL	16 µg/mL	>64 µg/mL	16 µg/mL	4 µg/mL	> 200 µg/mL

Further lines, with some results ahead:

Minimum Inhibitory Concentration (MIC) K. pneumoniae (K. pneumoniae)	Minimum Inhibitory Concentration (MIC) P. aeruginosa (P. aeruginosa)	Minimum Inhibitory Concentration (MIC) S. aureus (S. aureus)	Minimum Inhibitory Concentration (MIC) E. coli (E. coli)	Minimum Inhibitory Concentration (MIC) A. baumannii (A. baumannii)	SMILES	IC50 at 48 hours (in vitro)
32 µg/mL	16 µg/mL	>64 µg/mL	8 µg/mL	4 µg/mL	CC(C)[C@@H]1NC(=O)[C@@](C)(NC(=O)[C@H](C)NC(=O)[C@H](CCCCN)NC(=O)CNC(=O)[C@H](Cc2ccccc2)NC(=O)[C@H](CCCCN)NC(=O)[C@H](CCCCN)NC(=O)[C@H](CCCCN)NC(=O)[C@H](CCCCN)NC(=O)[C@H](CCCCN)NC(=O)[C@]2(C)CCCC=CCCC[C@](C)(NC(=O)CN)C(=O)NCC(=O)N[C@@H](CCCCN)C(=O)N[C@@H](Cc3ccccc3)C(=O)N2)CCCC=CCCC[C@@](C)(C(=O)N[C@@H](C)C(=O)N[C@@H](CCCCN)C(=O)N[C@@H](CCCCN)C(=O)NCC(=O)N[C@@H](CCC(=O)O)C(N)=O)NC(=O)[C@H](CCC(=O)O)NC(=O)CNC1=O [compound 53] (H-G[S5]GKF[S5]KKKKKFGKA[S5]VGE[S5]AKKGE-NH2; staple 2-6, 16-20)	211 µg/mL (≈ 76.7 µM)
32 µg/mL	8 µg/mL	>64 µg/mL	8 µg/mL	4 µg/mL	CC(C)[C@@H]1NC(=O)[C@@](C)(NC(=O)[C@H](C)NC(=O)[C@H](CCCCN)NC(=O)CNC(=O)[C@H](Cc2ccccc2)NC(=O)[C@H](CCCCN)NC(=O)[C@H](CCCCN)NC(=O)[C@H](CCCCN)NC(=O)[C@H](CCCCN)NC(=O)[C@H](CCCCN)NC(=O)[C@]2(C)CCCC=CCCC[C@](C)(NC(=O)CN)C(=O)NCC(=O)N[C@@H](CCCCN)C(=O)N[C@@H](Cc3ccccc3)C(=O)N2)CCCC=CCCC[C@@](C)(C(=O)N[C@@H](C)C(=O)N[C@@H](CCCCN)C(=O)N[C@@H](CCCCN)C(=O)NCC(=O)NCC(=O)NCC(=O)N[C@@H](CCC(=O)O)C(N)=O)NC(=O)[C@H](CCC(=O)O)NC(=O)CNC1=O [compound 54] (H-G[S5]GKF[S5]KKKKKFGKA[S5]VGE[S5]AKKGGGE-NH2; staple 2-6, 16-20)	262 µg/mL (≈ 91.5 µM)
64 µg/mL	16 µg/mL	>64 µg/mL	8 µg/mL	4 µg/mL	CC(C)[C@@H]1NC(=O)[C@@](C)(NC(=O)[C@H](C)NC(=O)[C@H](CCCCN)NC(=O)CNC(=O)[C@H](Cc2ccccc2)NC(=O)[C@H](CCCCN)NC(=O)[C@H](CCCCN)NC(=O)[C@H](CN)NC(=O)[C@H](CCCCN)NC(=O)[C@H](CCCCN)NC(=O)[C@]2(C)CCCC=CCCC[C@](C)(NC(=O)CN)C(=O)NCC(=O)N[C@@H](CCCCN)C(=O)N[C@@H](Cc3ccccc3)C(=O)N2)CCCC=CCCC[C@@](C)(C(=O)N[C@@H](C)C(=O)N[C@@H](CCCCN)C(=O)N[C@@H](CCCCN)C(=O)NCC(=O)NCC(=O)N[C@@H](CCC(=O)O)C(N)=O)NC(=O)[C@H](CCC(=O)O)NC(=O)CNC1=O [compound 81] (H-G[S5]GKF[S5]KK[Dap]KKFGKA[S5]VGE[S5]AKKGGE-NH2; staple 2-6, 16-20)	> 200 µg/mL

From patent US20240174723A1, “STAPLED ANTIMICROBIAL PEPTIDES (STAMPS) AND USES THEREOF” (Lytica Therapeutics, Inc., priority 2021, published 2024)
